# Assay results published in patent US20250256096A1 (priority 2022, published 2025).
# Where “and” joins values, the source holds several entries; their conditions need not be identical. Equal entries are not always repeated. Where two headings read alike, the source gives them in different places.
# System: cervical vagus nerve
# Assay type: in vivo, Adult male Lewis rats
# Details: for vagal nerve activity as detected by spike count analysis of electroneurograms: application directly to the cervical vagus nerve; for vagal nerve activity as detected by spike count analysis of electroneurograms / nerve firing of the main cervical vagus nerve: result in words; for nerve firing of the main cervical vagus nerve: intradermal application to trigeminal dermatomes on the forehead
# [1] = intradermal application on forehead near trigeminal nerve endings, high (100 nM) concentration, mean +/- SEM
Molecule,"cervical vagus nerve average spike count (rat, in vivo)",vagal nerve activity as detected by spike count analysis of electroneurograms,"cervical vagus nerve average spike count (high (100 nM) concentration applied directly on the cervical vagus nerve, mean +/- SEM)",cervical vagus nerve average spike count [1],nerve firing of the main cervical vagus nerve,"cervical vagus nerve average spike count (low (10 nM) concentration applied directly on the cervical vagus nerve, mean +/- SEM, POST 60-s segment)","cervical vagus nerve average spike count (intradermal application on forehead near trigeminal nerve endings, low (10 nM) concentration, mean +/- SEM)","effect on spike count (low (10 nM) or high (100 nM) concentrations directly on the cervical vagus nerve, data not shown)"
capsaicin,11.2+/−0.6 spikes/second and 17.7+/−0.8 spikes/second and 9.6+/−0.5 spikes/second,–,–,–,–,–,–,–
"COc1cc(CNC(=O)CCCC/C=C/C(C)C)ccc1O [Capsaicin, capsaicin]",–,increased,14.5+/−0.7 spikes/second,13.5+/−0.5 spikes/second,activated,7.6+/−0.7 spikes/second,–,–
CC(C)C[C@H](NC(=O)c1cc2ccccc2s1)C(=O)N1CCN(C(=O)[C@H](CO)NS(=O)(=O)c2ccc(Cl)cc2Cl)CC1 [GSK1016790A],–,increased,–,13.8+/−1.0 spikes/second,activated,–,7.0+/−0.5 spikes/second,no effect
WS-12,–,increased,–,–,activated,–,–,–
